Experimental data as given in patent publication US20120165331A1, “Di/tri-aza-spiro-C9-C11alkanes” (priority 2010, published 2012).

Legend:
human orexin 1 receptor = target: T1, human orexin 1 receptor (Homo sapiens, UniProt O43613); assay: Calcium accumulation in cells (FLIPR), antagonism of orexin A, human orexin 1 receptor; type: cell-based; conditions: for Ki: calcium accumulation, antagonism of orexin A, Cheng-Prusoff corrected, read-out: FLIPR hOx1R Ki; for inhibition at 10 µM: measured at a concentration of 10 μM of compound, read-out: FLIPR hOx1R % inhibition
T1 construct: expressed in transfected cells
T1 sequence (O43613 1-425): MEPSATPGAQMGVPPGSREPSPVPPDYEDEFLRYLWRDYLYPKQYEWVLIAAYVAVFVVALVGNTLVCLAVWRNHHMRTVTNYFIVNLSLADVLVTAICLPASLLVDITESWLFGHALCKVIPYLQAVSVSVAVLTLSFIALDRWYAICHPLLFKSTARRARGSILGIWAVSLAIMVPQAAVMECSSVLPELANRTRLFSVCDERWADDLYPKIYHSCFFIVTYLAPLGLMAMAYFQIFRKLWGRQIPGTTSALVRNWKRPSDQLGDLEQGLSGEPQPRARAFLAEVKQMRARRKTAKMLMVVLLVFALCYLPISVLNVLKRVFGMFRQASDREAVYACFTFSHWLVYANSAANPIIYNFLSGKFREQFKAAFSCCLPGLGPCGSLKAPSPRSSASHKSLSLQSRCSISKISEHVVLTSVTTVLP
Description: (§1) Calcium Accumulation in Cells (FLIPR):
(§2) Cells expressing human orexin 1 or human orexin 2 receptors, were seeded at 8,000 cells/well in 384 well black-walled clear bottom, poly-D-lysine coated plates. After 24 h, the medium was removed and cells were washed once with phosphate buffered saline and serum-deprived overnight in assay buffer (130 mM NaCl, 5.4 mM KCl, 1.8 mM CaCl2, 0.8 mM MgSO4, 0.9 mM NaH2PO4, 25 mM glucose, 20 mM HEPES, pH 7.4) containing bovine serum albumin (1% w/v).
(§3) On the day of the experiment, the cells seeded in black plates were treated with assay buffer containing the Ca^2+ sensitive fluorescent dye Fluo-4-AM (2 μM), and probenecid (0.1 mM). After 1 h plates were washed twice with, and resuspended in, assay buffer containing probenecid (0.1 mM) using a multi plate washer. The plates were placed into a FLIPR II (Fluorometric Imaging Plate Reader, Molecular Devices, Sunnyvale, Calif., USA) and baseline fluorescence (fluorescence light units, FLU) was measured (5 measurements, 2 S each; laser excitation 488 nm at 0.6-1 W, CCD camera exposure 0.4 s) before addition of buffer alone (basal) or containing test compounds (either compound of formula I alone, agonist alone or agonist in the presence of various concentrations of compounds of formula I). Fluorescence measurements were then continued every 1 S for 120 S followed by every 4 S for 240 S.
(§4) The measurements were typically made in two sequences:
(§5) Compounds of formula I were tested usually in a concentration range from 10^−9 M to 10^−5 M.
(§6) In the second round, performed one hour later (to allow for equilibration), Orexin A was tested either in the absence (calibration curves, Orexin A agonist controls) or in the presence of compounds of formula Ito determine antagonism.
(§7) Inhibition data is expressed in Table 1 as Kd [μM], converted by the Cheng and Prusoff correction (Kd=IC50/1+(L/EC50)), where IC50 is the 50% inhibition value determined in concentration response inhibition curves, EC50 is the half maximal activation concentration determined for orexin A in concentration response curves and L is the concentration of orexin A used in inhibition experiments performed in with a submaximal concentration of orexin A in the presence of up to 8 increasing concentrations of compound of formula I. Inhibition data is also expressed in Table 1 as % inhibition value measured at a concentration of 10 μM of selected compounds of formula I.

human orexin 2 receptor = target: T2, human orexin 2 receptor (Homo sapiens, UniProt O43614); assay: Calcium accumulation in cells (FLIPR), antagonism of orexin A, human orexin 2 receptor; type: cell-based; conditions: for Ki: calcium accumulation, antagonism of orexin A, Cheng-Prusoff corrected, read-out: FLIPR hOx2R Ki; for inhibition at 10 µM: measured at a concentration of 10 μM of compound, read-out: FLIPR hOx2R % inhibition
T2 construct: expressed in transfected cells
T2 sequence (O43614 1-444): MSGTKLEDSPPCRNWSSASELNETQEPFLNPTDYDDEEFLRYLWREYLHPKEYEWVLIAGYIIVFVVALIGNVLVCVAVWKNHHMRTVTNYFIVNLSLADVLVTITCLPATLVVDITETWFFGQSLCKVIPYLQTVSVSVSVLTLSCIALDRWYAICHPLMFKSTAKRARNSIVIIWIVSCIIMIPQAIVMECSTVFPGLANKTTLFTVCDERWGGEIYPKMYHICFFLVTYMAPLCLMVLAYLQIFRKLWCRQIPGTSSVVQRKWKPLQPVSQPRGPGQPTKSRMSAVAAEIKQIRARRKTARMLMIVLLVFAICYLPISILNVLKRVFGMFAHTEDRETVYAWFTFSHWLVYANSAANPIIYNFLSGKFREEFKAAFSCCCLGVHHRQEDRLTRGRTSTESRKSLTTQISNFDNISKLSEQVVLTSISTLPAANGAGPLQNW
Description: as §1, §2, §3, §4, §5, §6, §7

Compound | Ki (human orexin 1 receptor) [nM] | Ki (human orexin 2 receptor) [nM] | inhibition at 10 µM (human orexin 1 receptor) [%] | inhibition at 10 µM (human orexin 2 receptor) [%]
COc1nc(C)cc(N2CCC3(CC2)NCCN(Cc2c[nH]c4ccccc24)C3=O)n1 [Example 1.66, 4-((1H-indol-3-yl)methyl)-9-(2-methoxy-6-methyl-pyrimidin-4-yl)-1,4,9-triazaspiro[5.5] undecan-5-one] | 3920 | 632 |  | 
Cc1cc(C)nc(N2CCC3(CC2)NCCN(Cc2ccccc2-c2nc(C)no2)C3=O)n1 [Example 1.69, 9-(4,6-dimethyl-pyrimidin-2-yl)-4-(2-(3-methyl-1,2,4-oxadiazol-5-yl)benzyl)-1,4,9-triazaspiro[5.5] undecan-5-one] |  | 235 | 13 | 
CCc1cc(-c2nn(C)nc2CN2CCNC3(CCN(c4nc(C)cc(C)n4)CC3)C2=O)ccn1 [Example 1.75, 9-(4,6-dimethyl-pyrimidin-2-yl)-4-((5-(2-ethyl-pyridin-4-yl)-2-methyl-2H-1,2,3-triazol-4-yl)methyl)-1,4,9-triazaspiro[5.5] undecan-5-one] |  |  | < 10 | 35
Cc1cc(C)nc(N2CCC3(CC2)NCCN(Cc2nocc2-c2ccccc2)C3=O)n1 [Example 1.81, 9-(4,6-dimethyl-pyrimidin-2-yl)-4-((4-phenyl-isoxazol-3-yl)methyl)-1,4,9-triazaspiro[5.5] undecan-5-one] |  | 2190 | 33 | 
Cc1cc(C)nc(N2CCC3(CC2)NCCN(Cc2conc2-c2ccccc2)C3=O)n1 [Example 1.82, 9-(4,6-dimethyl-pyrimidin-2-yl)-4-((3-phenyl-isoxazol-4-yl)methyl)-1,4,9-triazaspiro[5.5] undecan-5-one] |  | 655 | 57 | 
Cc1cc(C)nc(N2CCC3(CC2)NCCN(Cc2nn(C)nc2-c2ccccc2)C3=O)n1 [Example 1.83, 9-(4,6-dimethyl-pyrimidin-2-yl)-4-((2-methyl-5-phenyl-2H-1,2,3-triazol-4-yl)methyl)-1,4,9-triazaspiro[5.5] undecan-5-one] | 4450 | 240 |  | 
Cc1cc(C)nc(N2CCC3(CC2)OCCN(Cc2ccccc2-c2ccco2)C3=O)n1 [Example 2.3, 9-(4,6-Dimethyl-pyrimidin-2-yl)-4-(2-furan-2-yl-benzyl)-1-oxa-4,9-diaza-spiro[5.5]undecan-5-one] | 1100 | 142 |  | 
COc1ccnc(N2CCC3(CC2)OCCN(Cc2c[nH]c4ccccc24)C3=O)n1 [Example 2.5, 4-((1H-Indol-3-yl)methyl)-9-(4-methoxypyrimidin-2-yl)-1-oxa-4,9-diazaspiro[5.5]undecan-5-one] | 1550 | 61 |  | 
Cc1cc(C)nc(N2CCC3(CC2)OCCN(Cc2ccccc2-c2ncco2)C3=O)n1 [Example 2.9, 9-(4,6-Dimethylpyrimidin-2-yl)-4-(2-(oxazol-2-yl)benzyl)-1-oxa-4,9-diazaspiro[5.5]undecan-5-one] |  | 659 | 42 | 
Cc1cc(C)nc(N2CCC3(CC2)OCCN(Cc2nn(C)nc2-c2ccccc2)C3=O)n1 [Example 2.12, 9-(4,6-Dimethylpyrimidin-2-yl)-4-((2-methyl-5-phenyl-2H-1,2,3-triazol-4-yl)methyl)-1-oxa-4,9-diazaspiro[5.5]undecan-5-one] |  | 364 | 16 | 
Cc1cc(C)nc(N2CCC3(CC2)OCCN(Cc2c(-c4ccccc4)nnn2C)C3=O)n1 [Example 2.15, 9-(4,6-Dimethylpyrimidin-2-yl)-4-((1-methyl-4-phenyl-1H-1,2,3-triazol-5-yl)methyl)-1-oxa-4,9-diazaspiro[5.5]undecan-5-one] |  | 2160 | 10 | 
Cc1cc(C)nc(N2CCC3(CC2)OCCN(Cc2nnn(C)c2-c2ccccc2)C3=O)n1 [Example 2.16, 9-(4,6-Dimethylpyrimidin-2-yl)-4-((1-methyl-5-phenyl-1H-1,2,3-triazol-4-yl)methyl)-1-oxa-4,9-diazaspiro[5.5]undecan-5-one] |  |  | 16 | 27
CCc1ccnc(N2CCC3(CC2)OCCN(Cc2c[nH]c4ccccc24)C3=O)n1 [Example 2.22, 4-((1H-indol-3-yl)methyl)-9-(4-ethylpyrimidin-2-yl)-1-oxa-4,9-diazaspiro[5.5]undecan-5-one] | 2780 | 251 |  | 
Cc1cnc(N2CCC3(CC2)OCCN(Cc2c[nH]c4ccccc24)C3=O)nc1C [Example 2.24, 4-((1H-indol-3-yl)methyl)-9-(4,5-dimethylpyrimidin-2-yl)-1-oxa-4,9-diazaspiro[5.5]undecan-5-one] | 1650 | 182 |  | 
Cc1cc(C)nc(N2CCC3(CC2)OCCN(Cc2nocc2-c2ccccc2)C3=O)n1 [Example 2.25, 9-(4,6-dimethylpyrimidin-2-yl)-4-((4-phenylisoxazol-3-yl)methyl)-1-oxa-4,9-diazaspiro[5.5]undecan-5-one] | 2680 | 374 |  | 
Cc1cc(C)nc(N2CCC3(CC2)OCCN(Cc2conc2-c2ccccc2)C3=O)n1 [Example 2.26, 9-(4,6-dimethylpyrimidin-2-yl)-4-((3-phenylisoxazol-4-yl)methyl)-1-oxa-4,9-diazaspiro[5.5]undecan-5-one] | 1180 | 148 |  | 
N#Cc1ccnc(N2CCC3(CCN(Cc4c[nH]c5ccccc45)C3=O)CC2)c1 [Example 3.3, 2-(2-((1H-Indol-3-yl)methyl)-1-oxo-2,8-diazaspiro[4.5]decan-8-yl)isonicotinonitrile] |  | 496 | 27 | 
COc1cccc(N2CCC3(CCN(Cc4c[nH]c5ccccc45)C3=O)CC2)n1 [Example 3.4, 2-((1H-Indol-3-yl)methyl)-8-(6-methoxypyridin-2-yl)-2,8-diazaspiro[4.5]decan-1-one] | 3770 | 287 |  | 
Cc1ccnc(N2CCC3(CCN(Cc4c[nH]c5ccccc45)C3=O)CC2)n1 [Example 3.5, 2-((1H-Indol-3-yl)methyl)-8-(4-methylpyrimidin-2-yl)-2,8-diazaspiro[4.5]decan-1-one] |  | 296 | 25 | 
O=C1N(Cc2ccccc2-c2ccccc2)CCC12CCN(c1cnc3ccccc3n1)CC2 [Example 3.6, 2-(biphenyl-2-ylmethyl)-8-(quinoxalin-2-yl)-2,8-diazaspiro[4.5]decan-1-one] | 1630 | 784 |  | 
Cn1c(N2CCC3(CCN(Cc4ccccc4-c4ccccc4)C3=O)CC2)nc2ccccc21 [Example 3.8, 2-(Biphenyl-2-ylmethyl)-8-(1-methyl-1H-benzo[d]imidazol-2-yl)-2,8-diazaspiro[4.5]decan-1-one] | 506 | 644 |  | 
O=C1N(Cc2ccccc2-c2ccccc2)CCC12CCN(c1nc3ccccc3[nH]1)CC2 [Example 3.9, 8-(1H-Benzo[d]imidazol-2-yl)-2-(biphenyl-2-ylmethyl)-2,8-diazaspiro[4.5]decan-1-one] | 343 | 731 |  | 
O=C1N(Cc2c[nH]c3ccccc23)CCC12CCN(c1nc3ccccc3[nH]1)CC2 [Example 3.12, 8-(1H-Benzoimidazol-2-yl)-2-(1H-indol-3-ylmethyl)-2,8-diaza-spiro[4.5]decan-1-one] | 4970 | 376 |  | 
